Among the data in ChEMBL document CHEMBL1156943, “Toward the development of potent and selective bisubstrate inhibitors of protein arginine methyltransferases” (Bioorg Med Chem Lett, 2010) are inhibition and IC50 values, retold here.

Some results are limits rather than exact numbers.

The target in assay [1] is T1, Protein arginine N-methyltransferase 1 (Homo sapiens, UniProt Q99873). The assay is described as follows: Inhibition of GST-fused human recombinant PRMT1 at 100 uM after 90 mins by SDS-PAGE based scintillation counting.
Target sequence in this assay (Q99873 whole entry, looked up, the tested form may be a part): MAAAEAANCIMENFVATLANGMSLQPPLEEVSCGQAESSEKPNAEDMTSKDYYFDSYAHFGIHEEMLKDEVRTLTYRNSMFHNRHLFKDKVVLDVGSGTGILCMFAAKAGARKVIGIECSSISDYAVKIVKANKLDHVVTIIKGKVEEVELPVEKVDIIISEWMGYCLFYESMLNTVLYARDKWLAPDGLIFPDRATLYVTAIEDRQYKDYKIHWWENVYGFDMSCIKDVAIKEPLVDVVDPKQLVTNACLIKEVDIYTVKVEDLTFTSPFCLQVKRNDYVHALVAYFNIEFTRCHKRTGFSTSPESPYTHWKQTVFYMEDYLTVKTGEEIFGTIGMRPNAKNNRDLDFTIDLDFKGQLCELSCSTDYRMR
The target of assay [2] is T2, Histone-lysine N-methyltransferase SETD7 (Homo sapiens) (UniProt Q8WTS6).
T2 sequence (whole entry): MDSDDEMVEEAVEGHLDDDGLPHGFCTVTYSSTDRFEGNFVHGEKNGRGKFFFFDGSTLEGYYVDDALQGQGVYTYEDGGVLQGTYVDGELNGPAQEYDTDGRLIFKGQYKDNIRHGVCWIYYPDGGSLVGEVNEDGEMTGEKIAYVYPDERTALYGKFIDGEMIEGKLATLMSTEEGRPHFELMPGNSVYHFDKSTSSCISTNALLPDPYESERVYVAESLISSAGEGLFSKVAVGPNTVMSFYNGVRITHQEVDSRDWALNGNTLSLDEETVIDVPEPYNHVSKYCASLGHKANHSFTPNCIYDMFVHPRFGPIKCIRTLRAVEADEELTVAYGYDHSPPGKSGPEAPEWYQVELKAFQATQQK
The assay is described as follows: Inhibition of GST-fused human recombinant SET7 at 100 uM after 90 mins by SDS-PAGE based scintillation counting.

For assay [3], the target named is T1, Protein arginine N-methyltransferase 1. The assay is described as follows: Inhibition of GST-fused human recombinant PRMT1 after 90 mins by SDS-PAGE based scintillation counting.
Target sequence in this assay (Q99873 whole entry, the tested form may be a part): as the sequence (Q99873 whole entry, looked up, the tested form may be a part) above
The target of assay [4] is T3, Histone-lysine N-methyltransferase SETD7 (Homo sapiens, UniProt Q8WTS6).
T3 sequence (Q8WTS6 whole entry): T2 sequence (whole entry)
The assay is described as follows: Inhibition of GST-fused human recombinant SET7 after 90 mins by SDS-PAGE based scintillation counting.

For the molecule `N=C(N)NCCn1cc(CN(CC[C@H](N)C(=O)O)C[C@H]2O[C@@H](n3cnc4c(N)ncnc43)[C@H](O)[C@@H]2O)nn1`, the inhibition in assay [1] and in assay [2] was above 50% each time.

Regarding `C#CCN(CC[C@H](NC(=O)OC(C)(C)C)C(=O)OC(C)(C)C)C[C@H]1O[C@@H](n2cnc3c(N)ncnc32)[C@@H]2OC(C)(C)O[C@@H]21`, the figures for the inhibition in assay [1] and in assay [2] were 77% and 63%, respectively.

`N=C(N)NCCCN(CC[C@H](N)C(=O)O)C[C@H]1O[C@@H](n2cnc3c(N)ncnc32)[C@H](O)[C@@H]1O`: the IC50 in assay [3] is 6.2 µM. The inhibition in assay [2] was determined as 56.5%. For `N=C(N)NCCCCN(CC[C@H](N)C(=O)O)C[C@H]1O[C@@H](n2cnc3c(N)ncnc32)[C@H](O)[C@@H]1O`, in that order: 2.9 µM and 49%. As for `C#CCN(CC[C@H](N)C(=O)O)C[C@H]1O[C@@H](n2cnc3c(N)ncnc32)[C@H](O)[C@@H]1O`, the figures for the inhibition in assay [1] and in assay [2] were 50% and 75%, respectively. Regarding `N=C(N)NCCCCCN(CC[C@H](N)C(=O)O)C[C@H]1O[C@@H](n2cnc3c(N)ncnc32)[C@H](O)[C@@H]1O`, the inhibition in assay [2] was found to be 55%.

On to `Nc1ncnc2c1ncn2[C@@H]1O[C@H](C[C@@H](N)CC[C@H](N)C(=O)O)[C@@H](O)[C@H]1O` [SINEFUNGIN], for which the IC50 in assay [4] came to 2500 nM.
